Laboratory results: US8946409B2, “Polycyclic β lactam derivatives for the treatment of cancer” (Board of Regents, The University of Texas System, priority 2011, dated 2015)
Like-named read-outs stand apart in the source and are kept apart here.

Tests used:
HT-29 = assay: MTT assay, HT-29 cells; assay type: cell-based, human; settings: HT-29, colon carcinoma, 72 hours, Table 1, read-out: IC50 in Cancer Cells Using the MTT Assay
Experimental: (§1) 8×10^3 cells/well were plated in a […]. Stock solutions of the agents were made in DMSO. Dilution of the compounds were in media with 10% FBS (fetal bovine serum). The cells were incubated in the drug for 72 hours and cell viability was determined by the MTT assay. IC50 was then calculated.

PANC-1 = assay: MTT assay, PANC-1 cells; assay type: cell-based, human
Experimental: as §1

A-549 = assay: MTT assay, A-549 cells; assay type: cell-based, human; settings: A-549, Non-Small Cell Carcinoma of the Lung, 72 hours, Table 1, read-out: IC50 in Cancer Cells Using the MTT Assay
Experimental: as §1

MDA-231 = assay: MTT assay, MDA-231 cells; assay type: cell-based, human; settings: MDA-231, breast cancer, 72 hours, Table 1, read-out: IC50 in Cancer Cells Using the MTT Assay
Experimental: as §1

BRO = assay: MTT assay, BRO cells; assay type: cell-based, human; settings: melanoma, 72 hours, Table 1, read-out: IC50 in Cancer Cells Using the MTT Assay
Experimental: as §1

PC-3 = assay: MTT assay, PC-3 cells; assay type: cell-based, human; settings: PC-3, carcinoma of the prostate, 72 hours, Table 1, read-out: IC50 in Cancer Cells Using the MTT Assay
Experimental: as §1

BXPC-3 = assay: MTT assay, BXPC-3 cells; assay type: cell-based; settings: Homo sapiens, Table 2, read-out: IC50 against Human Pancreatic Cancer Lines Using the MTT Assay
Experimental: as §1

ASCP-1 = assay: MTT assay, ASCP-1 cells; assay type: cell-based; settings: Homo sapiens, Table 2, read-out: IC50 against Human Pancreatic Cancer Lines Using the MTT Assay
Experimental: as §1

Miapaca-2 = assay: MTT assay, Miapaca-2 cells; assay type: cell-based, human; settings: for IC50: Homo sapiens, MIA PaCa-2, Miapaca-2, Table 2, read-out: IC50 against Human Pancreatic Cancer Lines Using the MTT Assay
Experimental: as §1

MPanc96 cells = assay: In vivo anti-tumorigenic activity, luciferase-labeled MPanc96 cells injected into mouse pancreas; design: species or system athymic nude mice
Experimental: (§2) The anti-tumorigenic activity of TX-262 was assessed in 4 week old male athymic nude mice by using a luciferase gene, stably-expressing, highly aggressive line of human pancreatic cells, MPanc96. 2×10^5/50 ul luciferase-labeled MPanc96 cells were injected directly into the mouse pancreas. […] Bioluminescent imagining was utilized to estimate tumor volume and location and mice were then divided into two groups such that the mean tumor size was equal between the groups. For the next five weeks mice in the control group were treated with DMSO only; while Group II mice were treated Monday through Friday as follows: 100 mg/K bw i.p. at zero time [AM] and a booster dose of 25 mg/K bw i.p. 90 minutes later. Each week body weight and mortality were recorded and tumor growth was monitored by bioluminescence imaging.
Bioluminescence imaging utilized a cryogenically cooled image system coupled to a data acquisition computer running LivingImage Software [Xenogen Corp., Alameda Calif.]. Prior to imaging, the mice were anesthetized in an acrylic chamber using 1.5% isofluoroane/air mixture and injected i.p. with 40 mg/ml of luciferin potassium salt in PBS at a dose of 150 mg/K bw.
A digital grayscale animal image was acquired followed by acquisition and overlay of a pseudo color image representing the spacial distribution of detected photons emerging from active luciferase within the mouse. […]

SW-1990 = assay: MTT assay, SW-1990 cells; assay type: cell-based; settings: Homo sapiens, SW1990, Table 2, read-out: IC50 against Human Pancreatic Cancer Lines Using the MTT Assay
Experimental: as §1

Pan02.03 = assay: MTT assay, Pan02.03 cells; assay type: cell-based; settings: Homo sapiens, Table 2, read-out: IC50 against Human Pancreatic Cancer Lines Using the MTT Assay
Experimental: as §1

[1] = Body weight of tumor-bearing mice during treatment; assay type: in vivo, athymic nude mice; settings: determined weekly through the treatment regimen
Experimental: as §2

CoLo35FG = assay: MTT assay, CoLo35FG cells; assay type: cell-based; settings: Homo sapiens, Table 2, read-out: IC50 against Human Pancreatic Cancer Lines Using the MTT Assay
Experimental: as §1

[2] = PANC-1, pancreatic cancer, 72 hours, Table 1, read-out: IC50 in Cancer Cells Using the MTT Assay
[3] = Homo sapiens, PANC-1, PANC-1, Table 2 (average of runs), read-out: IC50 against Human Pancreatic Cancer Lines Using the MTT Assay

Compound	IC50 (HT-29) [nM]	IC50 (PANC-1; [2]) [nM]	IC50 (A-549) [nM]	IC50 (MDA-231) [nM]	IC50 (BRO) [nM]	IC50 (PC-3) [nM]	IC50 (BXPC-3) [nM]	IC50 (ASCP-1) [nM]	IC50 (Miapaca-2) [nM]	IC50 (PANC-1; [3]) [nM]	IC50 (SW-1990) [nM]	IC50 (Pan02.03) [nM]	further results
N.N.[Cl][Pt][Cl] [Cisplatin, cisplatin]	17000	> 100000	> 100000	10100	5700	2100							
CN1CCN(C(=O)CCC(=O)Nc2cc3c4ccccc4ccc3c3ccccc23)CC1 [Compound 1b, 1-N-6′-Chrysenyl-4′-4-N-methylpiperazine-butane-1,4-dicarboxyamide]	16700	> 100000	> 100000	12200	33600	27300							
CS(=O)(=O)O[C@H]1C(=O)N(c2cc3c4ccccc4ccc3c3ccccc23)C1c1ccccn1 (stereo partly drawn) [Compound 12, (3R)-1-(chrysen-6-yl)-2-oxo-4-(pyridin-2-yl)azetidin-3-yl methanesulfonate]							430	1500	12000	< 1000	1300	390	Effective concentration relative to the concentration required by GEM (Miapaca-2; GEM-resistant line Miapaca-2): approximately one-half; IC50 (HT-29; Homo sapiens): 360 nM; IC50 (PANC-1; Homo sapiens, PANC-1, 72 h, PANC-1, pancreatic cancer, 72 hours, Table 1, read-out: IC50 in Cancer Cells Using the MTT Assay): 430 nM; IC50 (PANC-1; PANC-1, Table 2 (average of runs), read-out: IC50 against Human Pancreatic Cancer Lines Using the MTT Assay): 750 nM; Viable tumor mass relative to that in control mice (MPanc96 cells; at 5 weeks, 100 mg/K bw i.p. plus 25 mg/K bw i.p. 90 minutes later, Monday through Friday, bioluminescence imaging): approximately 33%; Surviving (viable) mice (MPanc96 cells; at 6 weeks, control mice 20%): 80%; IC50 (A-549; Homo sapiens, A549): 960 nM; IC50 (MDA-231; Homo sapiens, MDA-MB-231): 430 nM; Weights of mice, treated versus control [1]: No significant differences; IC50 (CoLo35FG): 2700 nM; IC50 (BRO; Homo sapiens): 640 nM; IC50 (PC-3; Homo sapiens): 510 nM
Nc1ccn([C@@H]2O[C@H](CO)[C@@H](O)C2(F)F)c(=O)n1 [GEM, gemcitabine]							300	100	25700	> 300000	400	150	IC50 against Human Pancreatic Cancer Lines Using the MTT Assay (PANC-1; PANC-1, Table 2 (average of runs)): inactive
